Laboratory results as given in PMC10065799, “High-throughput profiling of sequence recognition by tyrosine kinases and SH2 domains using bacterial peptide display” (eLife, 2023).

How the values were obtained:
Test in all cases: pTyr-Var library bacterial peptide display kinase screen (enrichment scores)
[1] = test system: EPHB2 kinase domain; format: biochemical, human; conditions: sheet EPHB2;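 note: log2 fold change in enrichment of variant over reference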
[2] = test system: EPHB1 kinase domain; format: biochemical, human; conditions: for Screen (variant relative to reference peptide, measured in the pTyr-Var library screen): sheet "EPHB1", variant seq vs reference seq, bacterial peptide display enrichment; for Screen: sheet EPHB1, effect of the variant peptide relative to its reference peptide in the pTyr-Var library screen (enrichment scores)
[3] = test system: Fer kinase domain; format: biochemical, mouse; conditions: sheet "Fer";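 note: log2 fold change in enrichment of variant over reference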
[4] = target: c-Src kinase domain (Homo sapiens, UniProt P12931); format: biochemical; conditions: sheet "Src";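 note: log2 fold change in enrichment of variant over reference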
[5] = target: T1, c-Abl kinase domain (Mus musculus, UniProt P00520); format: biochemical;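 note: log2 fold change in enrichment of variant over reference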
T1 sequence (P00520 242-493 limits assumed): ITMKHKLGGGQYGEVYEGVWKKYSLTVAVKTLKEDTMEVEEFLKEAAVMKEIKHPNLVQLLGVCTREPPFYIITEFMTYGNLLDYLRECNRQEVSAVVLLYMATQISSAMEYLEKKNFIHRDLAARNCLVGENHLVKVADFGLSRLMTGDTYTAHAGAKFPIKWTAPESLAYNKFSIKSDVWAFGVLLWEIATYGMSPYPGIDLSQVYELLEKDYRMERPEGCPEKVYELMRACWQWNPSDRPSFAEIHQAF

[6] = effect of the variant relative to its reference peptide in the pTyr-Var library screen
[7] = variant peptide relative to its reference peptide, pTyr-Var library screen enrichment
[8] = variant peptide versus its reference peptide in the pTyr-Var library screen
[9] = effect of variant peptide relative to its reference peptide in the pTyr-Var library screen (enrichment scores)
[10] = value of the variant peptide against its reference peptide in the pTyr-Var library screen with Fer
[11] = effect of the variant peptide relative to its reference peptide in the pTyr-Var library screen
[12] = fig5-data2, sheet "Abl", Screen for the variant/reference peptide pair, pTyr-Var library
[13] = sheet "Abl", effect of variant peptide relative to its reference peptide in pTyr-Var library screen (enrichment)

Sequence | Screen [1, 9] | Screen [2] | Screen [3, 10] | Screen [4, 11] | also measured
SQINLYQDVML [ZNF806_Y33_A28S] | – | – | – | – | Screen [1, 6]: -0.4727; Screen (variant relative to reference peptide, measured in the pTyr-Var library screen) [2]: -0.1927; Screen [3, 7]: -0.1473
SEPDLYFDPRG [PKP1_Y160_C161Y_YF] | 1.913 | 1.592 | -1.5 | – | Screen [4, 8]: 1.044
VDGSLYETHPQ [HK1_Y417_K418E] | 2.555 | 1.816 | 4.441 | – | –
FAELVYTSFWH [ASS1_Y322_G324S] | 0.4289 | 0.4613 | 0.3535 | -0.03781 | –
ASTHIYQIMNH [ITK_Y588_V587I] | 2.415 | 3.124 | 2.332 | 0.7541 | –
FSMGCYEFSLG [HMGCL_Y198_I200F_YF] | – | – | 0.8119 | -0.3724 | Screen [5, 12]: 1.5
RVLQLYGCSPS [ASTL_Y279_K277Q] | 1.225 | – | – | – | –
ITNVLYHVVGW [GBA_Y412_L410V] | -1.361 | -1.243 | -0.5496 | -0.5492 | –
VFLGAYDHFLP [SLC22A5_Y486_R488H_YF] | 1.125 | – | – | – | Screen [4, 8]: -0.3296; Screen (variant relative to reference peptide, measured in the pTyr-Var library screen) [2]: 0.9383; Screen [3, 7]: 2.03
RIGRKYKRVRF [F8_Y442_K444R] | 1.084 | – | – | 3.277 | –
FKEDPYLVVNP [MCM6_Y810_E806K_YF] | – | – | – | -0.4166 | Screen [5, 12]: -1.709
VARAVYQAVLS [SMG1_Y549_H546R] | -3.744 | – | – | – | Screen [4, 8]: -1.809; Screen (variant relative to reference peptide, measured in the pTyr-Var library screen) [2]: -4.046; Screen [3, 7]: -2.673
LVTCSYLLGNS [LMNA_Y646_R644C] | 1.308 | – | – | – | –
RNFGTYTAGLS [RHBDD1_Y264_D262G_YF] | -2.902 | -2.368 | – | – | –
GTSLIYWILFT [G6PC3_Y214_T216I] | -1.51 | -1.942 | -1.528 | -1.381 | –
KNNSIYVLANI [VNN1_Y134_V136L] | – | – | – | – | Screen [3, 7]: 1.88; Screen [5, 13]: -3.297
NREGVYTVSAP [TGFBI_Y537_F540S] | -1.97 | – | – | – | Screen [4, 8]: -0.08291; Screen (variant relative to reference peptide, measured in the pTyr-Var library screen) [2]: -2.126; Screen [3, 7]: -3.034
HNLDFYKETTN [FGFR3_Y648_K650E_YF] | -1.243 | -0.9671 | -1.533 | -1.013 | –
ICFSDYVEVAD [PHACTR1_Y525_R521C] | – | 0.304 | – | – | Screen [5, 12]: 1.249
NDFGNYSNQSS [HNRNPA1_Y318_N319S] | 2.422 | 4.118 | – | – | –
TLSGTYQFIIA [FOXL2_Y81_I80T_YF] | -3.51 | -3.534 | -3.428 | -2.746 | –
MSRFIYSTDFF [NTRK1_Y676_D674Y_YF] | -1.706 | -1.34 | -0.8782 | – | Screen [4, 8]: -0.3372
MENFIYESMQF [CYP19A1_Y361_R365Q_YF] | 1.167 | 0.9498 | 0.2137 | 0.1198 | –
AEFGLYRAMVR [VSX2_Y222_G223R_YF] | – | – | – | – | Screen [4, 8]: -2.091; Screen [5, 13]: 2.423
SRDPFYEMLTA [CYTH1_Y382_A386T] | 0.7334 | 0.4954 | -0.1692 | 0.1014 | –
AVISVYDLVVV [PSEN1_Y256_A260V] | -0.3059 | -0.1318 | 0.009469 | – | Screen [4, 8]: -0.2228

Sequence | Screen [1, 9] | Screen [2] | Screen [3, 10] | Screen [4, 11] | also measured
EFHRLYEEFTR [PIK3R1_Y467_D464H_YF] | -0.0373 | 0.6076 | -0.6972 | – | Screen [4, 8]: 0.07006
VKANTYENFWP [GATM_Y100_K102N_YF] | 2.516 | 2.281 | 1.784 | 0.5982 | –
RQQQDYWLKDV [ANPEP_Y600_I603K] | -3.253 | -4.233 | -2.803 | – | –
NVKGIYAVADV [GSR_Y371_G374A] | 2.725 | 1.714 | 1.853 | -0.2612 | –
QMVGMYASFFM [AVPR2_Y124_S127F_YF] | 1.338 | 1.725 | 2.583 | 2.334 | –
RTVPLYESLRK [DDB1_Y718_P721L] | -0.0735 | 0.1495 | -0.4469 | 1.169 | –
FRAVKYLQMVG [AVPR2_Y117_C112Y_YF] | – | – | – | – | Screen [5, 12]: 1.48
IVRSPYEDLED [VHL_Y185_L184P] | – | – | – | – | Screen [5, 13]: 0.8994
LLTKVYVVEGS [ZMPSTE24_Y253_P248L] | – | – | – | – | Screen [5, 13]: -5.536
DCLASYLDKVR [KRT16_Y131_R127C] | – | – | – | – | Screen [5, 12]: 1.893
FEPWVYSLSFE [PRKDC_Y647_F649L_YF] | – | – | – | – | Screen [4, 8]: 0.05044; Screen [5, 12]: -0.5163
LTFHMYADPNI [SOS1_Y618_F623I_YF] | 0.3507 | – | – | – | Screen (variant relative to reference peptide, measured in the pTyr-Var library screen) [2]: 0.02693
RKLVDYDSAQH [BIN1_Y150_R154Q] | – | – | – | – | Screen [5, 12]: -0.7012
MTFQNYRQALF [FAM20C_Y279_G280R] | -1.483 | – | – | – | –
INITIYGKTFH [EFHC1_Y177_R182H] | – | – | – | – | Screen [5, 12]: 2.247
KSRQIYDAFIM [GRK3_Y109_R104K_YF] | 1.299 | 0.9818 | 0.5964 | 0.6859 | –
RILENYGADID [DNAH5_Y596_L591R] | – | – | – | – | Screen [5, 12]: -0.1652
VDGSVYELHPS [GCK_Y413_K414E] | 2.546 | 2.239 | 4.734 | 1.442 | –
HGAKVYIDPFT [EPHB4_Y590_T587A] | – | – | – | – | Screen [5, 12]: 1.249
DHPSEYAARQL [ANXA13_Y90_R86H] | – | – | – | – | Screen [5, 12]: 0.8208
KAWGIYDCQQP [CYP3A7_Y75_V71A] | 0.8548 | 0.3477 | 0.5201 | 0.09779 | –
FDKPVYQKTTE [LDLR_Y828_N825K] | – | – | – | – | Screen [5, 12]: 0.7779
SVVVLYEPPEV [TP53_Y220_P219L] | – | – | – | – | Screen [1, 6]: 4.006; Screen (variant relative to reference peptide, measured in the pTyr-Var library screen) [2]: 3.168; Screen [3, 7]: 3.283
PANMVYSTVEI [SLAMF7_Y304_T302M] | 0.9599 | – | – | – | Screen [4, 8]: 0.01938; Screen (variant relative to reference peptide, measured in the pTyr-Var library screen) [2]: 0.5023; Screen [3, 7]: -0.2345
FTDPFYDFEIE [ZC3H18_Y372_A368T_YF] | – | – | – | – | Screen [4, 8]: 0.548; Screen (variant relative to reference peptide, measured in the pTyr-Var library screen) [2]: 0.9547; Screen [5, 13]: 2.472
MKKMHYVDPDR [ST3GAL5_Y99_H104R] | – | – | – | – | Screen [5, 13]: -0.8054
